Measurements reported in PubChem BioAssay AID248 (DTP/NCI, 2004).
“And” between values parts separate entries of the source, which are not always exact repeats. Equal entries are not always repeated. Inconclusive results and toxic doses are left out. Rule as the data show it: active = T/C of 150% or more; inactive = T/C below 125%.

Tested on: L1210 leukemia ip in BDF1 mice, survival T/C
Assay: NCI In Vivo Anticancer Drug Screen. Data for tumor model L1210 Leukemia (intraperitoneal) in B6D2F1 (BDF1) mice
Details: endpoint: mean survival time, higher = longer survival
Procedure, shortened: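 Read-out is survival time, reported as the treated-group measurement over the vehicle-control measurement.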

[1] = dose: 100.0 mg/kg/injection, schedule: Q01DX001 (ip), vehicle: saline with Tween-80
[2] = dose: 200.0 mg/kg/injection, schedule: Q01DX001 (ip), vehicle: saline with Tween-80
[3] = dose: 400.0 mg/kg/injection, schedule: Q01DX001 (ip), vehicle: saline with Tween-80
[4] = dose: 12.5 mg/kg/injection, schedule: Q01DX009 (ip), vehicle: saline with Tween-80
[5] = dose: 12.5 mg/kg/injection, schedule: Q04DX003 (ip), vehicle: saline with Tween-80
[6] = dose: 25.0 mg/kg/injection, schedule: Q01DX009 (ip), vehicle: saline with Tween-80
[7] = dose: 25.0 mg/kg/injection, schedule: Q04DX003 (ip), vehicle: saline with Tween-80
[8] = dose: 50.0 mg/kg/injection, schedule: Q01DX009 (ip), vehicle: saline with Tween-80
[9] = dose: 100.0 mg/kg/injection, schedule: Q01DX009 (ip), vehicle: saline with Tween-80
[10] = dose: 100.0 mg/kg/injection, schedule: Q01DX009 (ip), vehicle: Klucel (hydroxypropylcellulose) (HPC)
[11] = dose: 25.0 mg/kg/injection, schedule: Q01DX009 (ip), vehicle: Klucel (hydroxypropylcellulose) (HPC)
[12] = dose: 50.0 mg/kg/injection, schedule: Q01DX009 (ip), vehicle: Klucel (hydroxypropylcellulose) (HPC)

Measured: T/C

CNC(=O)CCC(NS(=O)(=O)c1ccc(C)cc1)C(=O)O (configuration not stated)
inactive: [1] 100 % of control | [2] 95 % of control | [3] 97 % of control

O=C(CC(=O)C(F)(F)F)c1ccccc1.O=C(CC(=O)C(F)(F)F)c1ccccc1.[Cu]
inactive: dose: 6.25 mg/kg/injection, schedule: Q01DX009 (ip), vehicle: saline with Tween-80 95 % of control | dose: 6.25 mg/kg/injection, schedule: Q04DX003 (ip), vehicle: saline with Tween-80 91 % of control | [4] 95 % of control | [5] 92 % of control | [6] 92 % of control | [7] 91 % of control

O=C(Sc1ccccc1)C1OC1c1ccccc1 (configuration not stated)
inactive: dose: 100.0 mg/kg/injection, schedule: Q04DX003 (ip), vehicle: alcohol 98 % of control | dose: 200.0 mg/kg/injection, schedule: Q04DX003 (ip), vehicle: alcohol 92 % of control | dose: 400.0 mg/kg/injection, schedule: Q04DX003 (ip), vehicle: alcohol 86 % of control

CC(C)(CC(N)=O)C(=O)O
inactive: dose: 50.0 mg/kg/injection, schedule: Q01DX001 (ip), vehicle: saline 102 % of control | dose: 100.0 mg/kg/injection, schedule: Q01DX001 (ip), vehicle: saline 115 % of control | dose: 200.0 mg/kg/injection, schedule: Q01DX001 (ip), vehicle: saline 113 % of control | dose: 400.0 mg/kg/injection, schedule: Q01DX001 (ip), vehicle: saline 110 % of control

C1CN2CCC1CC2
inactive: dose: 10.0 mg/kg/injection, schedule: Q01DX001 (ip), vehicle: saline 93 % of control | [8] 98 % of control | [9] 97 % of control | dose: 100.0 mg/kg/injection, schedule: Q04DX003 (ip), vehicle: saline with Tween-80 106 % of control | dose: 200.0 mg/kg/injection, schedule: Q04DX003 (ip), vehicle: saline with Tween-80 93 % of control

COc1ccc(-n2c(=O)c(N=Nc3ccc(Br)cc3)c(O)n(-c3ccc(Cl)cc3)c2=S)cc1
inactive: dose: 37.5 mg/kg/injection, schedule: Q01DX001 (ip), vehicle: Klucel (hydroxypropylcellulose) (HPC) 102 % of control | dose: 75.0 mg/kg/injection, schedule: Q01DX001 (ip), vehicle: Klucel (hydroxypropylcellulose) (HPC) 101 % of control | dose: 150.0 mg/kg/injection, schedule: Q01DX001 (ip), vehicle: Klucel (hydroxypropylcellulose) (HPC) 104 % of control

CNc1ncnc2c1ccn2C1OC(CO)C(O)C1O (configuration not stated)
inactive: dose: 50.0 mg/kg/injection, schedule: Q01DX001 (ip), vehicle: carboxymethylcellulose (CMC) 110 % of control

CCOC(=O)C(=O)Nc1ccccc1-c1ccccc1
inactive: dose: 100.0 mg/kg/injection, schedule: Q04DX003 (ip), vehicle: saline 102 % of control | dose: 200.0 mg/kg/injection, schedule: Q04DX003 (ip), vehicle: saline 98 % of control | dose: 400.0 mg/kg/injection, schedule: Q04DX003 (ip), vehicle: saline 101 % of control

Cn1c(SCc2ccccc2)nccc1=O
inactive: [10] 96 % of control | dose: 200.0 mg/kg/injection, schedule: Q01DX009 (ip), vehicle: Klucel (hydroxypropylcellulose) (HPC) 104 % of control

COC(=O)CNC(=O)C1CSC(C)(C)N1 (configuration not stated)
inactive: dose: 100.0 mg/kg/injection, schedule: Q01DX001 (ip), vehicle: steriod suspending solution 100 % of control | dose: 200.0 mg/kg/injection, schedule: Q01DX001 (ip), vehicle: steriod suspending solution 97 % of control | dose: 400.0 mg/kg/injection, schedule: Q01DX001 (ip), vehicle: steriod suspending solution 100 % of control

O=C(NCCCN1CCOCC1)C(Oc1ccccc1)Oc1ccccc1
inactive: dose: 6.25 mg/kg/injection, schedule: Q01DX009 (ip), vehicle: Klucel (hydroxypropylcellulose) (HPC) 91 % of control | dose: 12.5 mg/kg/injection, schedule: Q01DX009 (ip), vehicle: Klucel (hydroxypropylcellulose) (HPC) 98 % of control | [11] 100 % of control | [12] 89 % of control

[CH3][Pb]([CH3])([CH3])[O]C(=O)CCl
inactive: dose: 0.39 mg/kg/injection, schedule: Q01DX009 (ip), vehicle: saline with Tween-80 97 % of control | dose: 0.78 mg/kg/injection, schedule: Q01DX009 (ip), vehicle: saline with Tween-80 97 % of control | dose: 1.56 mg/kg/injection, schedule: Q01DX009 (ip), vehicle: saline with Tween-80 95 % of control and 115 % of control

COC(=O)c1nc[nH]c1N=[N+]=[N-]
inactive: dose: 100.0 mg/kg/injection, schedule: Q01DX001 (ip), vehicle: other 97 % of control

CC(=O)OC1CC2(CO2)C2CC=C(C)C2C2OC(=O)C(C)C12 (configuration not stated)
inactive: dose: 12.5 mg/kg/injection, schedule: Q04DX002 (ip), vehicle: saline 110 % of control | dose: 25.0 mg/kg/injection, schedule: Q04DX002 (ip), vehicle: saline 100 % of control | dose: 50.0 mg/kg/injection, schedule: Q04DX002 (ip), vehicle: saline 95 % of control | dose: 100.0 mg/kg/injection, schedule: Q04DX002 (ip), vehicle: Klucel (hydroxypropylcellulose) (HPC) 90 % of control | dose: 200.0 mg/kg/injection, schedule: Q04DX002 (ip), vehicle: Klucel (hydroxypropylcellulose) (HPC) 100 % of control

CNC(=O)C(C)(C)C
inactive: [1] 100 % of control | [2] 103 % of control | [3] 100 % of control

O=C1C=C(c2ccccc2)S(=O)(=O)C(c2ccccc2)=C1
inactive: dose: 37.5 mg/kg/injection, schedule: Q04DX002 (ip), vehicle: Klucel (hydroxypropylcellulose) (HPC) 97 % of control | dose: 75.0 mg/kg/injection, schedule: Q01DX001 (ip), vehicle: carboxymethylcellulose (CMC) 124 % of control | dose: 75.0 mg/kg/injection, schedule: Q04DX002 (ip), vehicle: Klucel (hydroxypropylcellulose) (HPC) 108 % of control | dose: 150.0 mg/kg/injection, schedule: Q04DX002 (ip), vehicle: Klucel (hydroxypropylcellulose) (HPC) 101 % of control

O=C(O)C1=C(C(=O)O)C2CCCC3C4CCCCC4N(N1)C23 (configuration not stated)
inactive: dose: 75.0 mg/kg/injection, schedule: Q01DX001 (ip), vehicle: acetone 117 % of control | dose: 150.0 mg/kg/injection, schedule: Q01DX001 (ip), vehicle: acetone 104 % of control | dose: 300.0 mg/kg/injection, schedule: Q01DX001 (ip), vehicle: acetone 118 % of control

NC(=S)N=Nc1c(O)[nH]c(=O)[nH]c1=O
inactive: [4] 98 % of control | [5] 97 % of control | [6] 104 % of control | [7] 92 % of control | [8] 104 % of control | dose: 50.0 mg/kg/injection, schedule: Q04DX003 (ip), vehicle: saline with Tween-80 96 % of control

CCc1ccc(NC(=O)c2ccco2)cc1
inactive: [11] 98 % of control | [12] 96 % of control | [10] 98 % of control

CSCCO
inactive: dose: 100.0 mg/kg/injection, schedule: Q01DX009 (ip), vehicle: saline 89 % of control | dose: 100.0 mg/kg/injection, schedule: Q04DX003 (ip), vehicle: saline sonified 102 % of control | dose: 200.0 mg/kg/injection, schedule: Q01DX009 (ip), vehicle: saline 100 % of control | dose: 200.0 mg/kg/injection, schedule: Q04DX003 (ip), vehicle: saline sonified 116 % of control | dose: 400.0 mg/kg/injection, schedule: Q01DX009 (ip), vehicle: saline 96 % of control | dose: 400.0 mg/kg/injection, schedule: Q04DX003 (ip), vehicle: saline sonified 98 % of control

COC1(OC)CC2C(=O)CCCC21OC (configuration not stated)
inactive: dose: 100.0 mg/kg/injection, schedule: Q04DX002 (ip), vehicle: saline with Tween-80 100 % of control | dose: 200.0 mg/kg/injection, schedule: Q04DX002 (ip), vehicle: saline with Tween-80 93 % of control | dose: 400.0 mg/kg/injection, schedule: Q04DX002 (ip), vehicle: saline with Tween-80 97 % of control

O=C1c2ccccc2C(=O)N1Cc1nc(=S)[nH][nH]1
inactive: [1] 100 % of control | [2] 97 % of control | [3] 97 % of control

CC1([N+](=O)[O-])COP(=O)(Nc2ccc(F)cc2)OC1 (configuration not stated)
inactive: dose: 100.0 mg/kg/injection, schedule: Q01DX001 (ip), vehicle: carboxymethylcellulose (CMC) 100 % of control | dose: 200.0 mg/kg/injection, schedule: Q01DX001 (ip), vehicle: carboxymethylcellulose (CMC) 94 % of control

Cc1cc(C)c(S(=O)(=O)c2ccc(F)cc2)c(C)c1
inactive: [9] 98 % of control | dose: 200.0 mg/kg/injection, schedule: Q01DX009 (ip), vehicle: saline with Tween-80 98 % of control | dose: 400.0 mg/kg/injection, schedule: Q01DX009 (ip), vehicle: saline with Tween-80 101 % of control
